# Assay results: US20140377289A1, “Metallodrugs Having Improved Pharmacological Properties, and Methods of Manufacture and Use Thereof” (MetalloPharm, LLC, priority 2011, published 2014)
# Like-named read-outs stand apart in the source and are kept apart here. Where a SMILES comes first, the peptide text is derived from it. [ ]: non-standard residue; d: D form. Cha = N[C@@H](CC1CCCCC1)C(=O)O
# What was measured:
# [1] = molecular target: HCV protease (Hepatitis C virus genotype 1a, UniProt P27958); experiment: biochemical; type: binding
# Description: This stems from the relationship between affinity and the on/off rate constants for binding (KA=kon/koff), where higher affinity binding is promoted by larger kon and/or smaller koff values. By contrast, efficient catalytic turnover requires koff values that are preferably no smaller than the rate constant for the inactivation chemistry (kcat), to ensure the availability of metallodrug catalyst for new target molecules, and will be best promoted by relatively high values for both kon and koff, which will result in weaker KA values.
# Apparent binding affinities and rates of inactivation for HCV protease by several metallopeptide derivatives incorporating a Cu-GGH metal binding domain and C-terminal HCV protease targeting peptides were prepared and their affinity and reactivity were evaluated under in the presence of various redox reagents. Affinities lay within the range of 10^4M^−1 and 5×10^8 M^−1.
# [2] = test system: pUC19 plasmid DNA; experiment: DNA nicking and linearization nuclease assay; type: biochemical; conditions: 10 μM base pairs pUC19, ascorbate/peroxide; for klin for DNA linearization, without attached Rev (M-chelate) / knick for DNA nicking, without attached Rev (M-chelate): — = Below detection limit; for klin for DNA linearization, with attached Rev (M-chelate-REV) / knick for DNA nicking, with attached Rev (M-chelate-REV): 100 nM M-chelate-Rev
# [3] = test system: stem loop IIb HCV IRES RNA; type: biochemical, hepatitis C virus (HCV)
# Procedure: HCV IRES RNA cleavage was monitored in vitro by fluorescence using 5′ fluorescein end-labeled RNA with excitation and emission wavelengths of 485 nm and 518 nm, respectively. Reactions were carried out in reaction volumes of 100 μl in the presence of 1 mM ascorbate and 1 mM H2O2 in 20 mM HEPES buffer (pH=7.4), 100 mM NaCl with 100 nM of the catalyst and analyzed according to the change in fluorescence observed as the reaction occurred. Both a time-dependence and a concentration-dependence of RNA substrate were observed. The initial velocities were fit to a line using Origin 7.0 software and kobs obtained. These values were then used to obtain the Michaelis-Menten parameters.
# The reactivity of select catalytic metallodrugs was investigated by Michaelis-Menten profiles. Reaction chemistry was followed by monitoring the fluorescence change of 5′-fluorescein-labeled RNA as a function of time. Initial velocities were measured as a function of substrate (RNA) concentration to generate a standard Michaelis-Menten plot (FIG. 2).
# [4] = test system: ET (luc-ubi-neo/ET) Huh7 human hepatoma cell line; conditions: read-out: cytotoxicity TC50; 72 h, CytoTox-1 colorimetric assay
# [5] = molecular target: stem-loop IIb of HCV IRES RNA; type: binding, hepatitis C virus (HCV)
# Procedure: RNA was purchased from Dharmacon, part of Thermo Fisher Scientific (Lafayette, Colo.). Peptides were purchased from Genemed Synthesis Inc (South San Francisco, Calif.) with C-terminal amidation. The stem-loop (SL) structure (from Lytle et al., RNA 13: 539-48, 2002) is depicted in FIG. 6. The sequence for the IRES SL IIb RNA used was 5′-Fluorescein-[…]-3′, and for the IRES SL IV RNA was 5′-Fluorescein-[…]-3′. All RNA was annealed by heating to 95° C. and then cooled slowly to room temperature before use.
# RNA binding experiments were performed in the presence of 84 nM GGHYrFK-amide in 20 mM HEPES (pH 7.4), 100 mM NaCl. For GGHYrFK-amide, serial additions of unlabeled IRES RNA were added and tyrosine emission was monitored (λex=280 nm, λem=313 nm). Binding data for GGHYr[…]-amide and GGHYr[…]-amide were obtained by adding serial additions of peptide to 5′-fluorescein labeled IRES SLIIb and monitoring at 518 nm (Ex=485 nm). Data was then fit to a one-site binding model.
# [6] = test system: HCV RNA replicon in ET (luc-ubi-neo/ET) Huh7 cells; conditions: read-out: antiviral IC50; 72 h, replicon-derived Luc activity
# [7] = test system: HIV RRE RNA (AP-RRE RNA); type: binding; conditions: for Kd: 37° C., pH 7.4
# Procedure: Determination of Dissociation Constants. […] A 660 μL volume of 100 nM AP-RRE RNA was first heated to 90° C. for 5 min and then allowed to cool to, but not below, the titration temperature (37° C.). A 650 μL volume of this sample was added to the pre-thermostatted cuvette. After 10 min of temperature equilibration a solution of 5 μM M-chelate-Rev complex was titrated into the solution. After each addition, 100 μL of the solution was mixed by gentle pipeting to ensure complete mixing. The fluorescence change associated with the change of environment of the aminopurine label was monitored following peptide binding. Titration response curves were dilution and background corrected and normalized to initial intensity values. Curves were fit to a biphasic equation (4) for two independent binding sites where Fobs is the total observed fluorescence intensity, P0 is the total concentration of added M-chelate-Rev, F0, F1, and F2 are fitting parameters corresponding to the intensities of the unbound, singly-bound, and doubly-bound AP-RNA, respectively, R0 is the initial concentration of AP-RNA, and KD1 and KD2 are dissociation constants for binding at the high- and low-affinity sites, respectively. All binding experiments were performed in a binding buffer composed of 20 mM HEPES, 100 mM NaCl, pH 7.4.
# [8] = test system: AP-RNA (aminopurine-labeled RRE RNA); experiment: Reaction kinetics monitored by real-time fluorimetry, AP-RNA; type: biochemical, HIV; conditions: 100 nM complex, 100 nM AP-RNA, 1 mM H2O2, 1 mM ascorbate, 37° C.; initial rate
# Procedure: Reaction Kinetics Monitored by Real-Time Fluorimetry. Reactions of 100 nM metal-chelate-Rev (1:1.2 M:chelate ratio), 1 mM H2O2, 1 mM ascorbate, and 100 nM AP-RNA were conducted at 37° C. in a fluorescence cuvette in a Varian Cary Eclipse fluorescence spectrophotometer. Reactions were monitored using excitation at 310 nm (SW=10 nm) and emission at 371 nm (SW=10 nm). Prior to reaction the AP-RNA was pre-heated to 90° C. for 5 min and then added to the pre-warmed 37° C. cuvette. The metal-chelate-Rev complexes were added after 5 min, and reactions were initiated by the addition of H2O2 and ascorbate after an additional 10 min. Each resulting fluorescence trace was fit to a first-order reaction equation using the software Origin, and observed rate constants and initial rates were determined; the magnitude of fluorescence change that corresponded to complete reaction was established by averaging the magnitudes of fluorescence change from many trials known to react to completion. All concentrations and buffer were identical to those used in the PAGE analysis assay with Fl-RNA. Control reactions with respective metal-chelates lacking the Rev domain were conducted in the same manner.
# [9] = test system: 5′ fluorescein end-labeled RRE stem IIB RNA (Fl-RNA); experiment: PAGE analysis of RRE RNA cleavage kinetics; type: biochemical, HIV; conditions: 100 nM complex, 100 nM Fl-RNA, 1 mM H2O2, 1 mM ascorbate, 37° C.; initial rate
# Procedure: PAGE Analysis of RRE RNA Cleavage Kinetics. Reactions of 100 nM metal-chelate-Rev (1:1.2 M:chelate ratio), 1 mM H2O2, 1 mM ascorbate, and 100 nM 5′ fluorescein end-labeled RRE stem IIB RNA (Fl-RNA) were conducted at 37° C. in separate tubes, each containing 20 μL total reaction volume—one tube corresponding to one gel lane. A buffer consisting of 20 mM HEPES, 100 mM NaCl, pH 7.4 was used in all experiments. Fl-RNA was heated to 90° C. and allowed to cool to, but not below 37° C. prior to reaction, and the Fl-RNA was immediately added to each pre-incubated tube. Reactants were added to pre-incubated tubes at time-points corresponding to the beginning of each reaction, which were performed in a dark incubator. Reaction start times were staggered and all reactions were quenched at the same time by addition of a quenching/gel-loading buffer solution (80 μL/tube) consisting of standard 1× tris-EDTA-acetic acid buffer, 8M urea, 20 mM HEPES, 100 mM NaCl. The tubes were then heated to 90° C. for 5 min and a 5 μL aliquot from each tube was then loaded into its corresponding lane of a 10% polyacrylamide 8 M urea gel, resulting in […] Fl-RNA per lane. Gel electrophoresis was performed at 250 V for 1.5 h. Gels were analyzed on a GE Typhoon variable mode imager using 488 nm excitation and a 526 nm single pass emission filter. Bands were quantified with the program ImageQuant. Loss of initial Fl-RNA reactant bands were fit to a first-order reaction equation using the software Origin, and observed rate constants and initial rates were determined. Control reactions with respective metal-chelates lacking the Rev domain were conducted in the same manner.
# [10] = molecular target: S. aureus sortase A (Staphylococcus aureus, UniProt Q2FV99); type: biochemical; conditions: for activity for catalyst concentration of 1 μM: catalyst concentration 1 μM
# Procedure: Apparent binding affinities and rates of inactivation for S. aureus sortase A by several metallopeptide derivatives were evaluated. […]
# [11] = Michaelis-Menten, stem-loop IIb RNA as substrate
# [12] = high-affinity RRE RNA site, read-out: KD1
# [13] = low-affinity RRE RNA site, read-out: KD2
# Sequence of HCV protease (P27958 1027-1208, other chains not shown): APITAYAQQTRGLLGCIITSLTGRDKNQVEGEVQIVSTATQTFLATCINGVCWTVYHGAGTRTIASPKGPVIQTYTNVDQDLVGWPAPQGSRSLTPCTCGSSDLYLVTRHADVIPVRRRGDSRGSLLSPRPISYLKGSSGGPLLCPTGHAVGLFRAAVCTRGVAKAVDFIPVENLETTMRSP
# Sequence of S. aureus sortase A (Q2FV99 whole entry): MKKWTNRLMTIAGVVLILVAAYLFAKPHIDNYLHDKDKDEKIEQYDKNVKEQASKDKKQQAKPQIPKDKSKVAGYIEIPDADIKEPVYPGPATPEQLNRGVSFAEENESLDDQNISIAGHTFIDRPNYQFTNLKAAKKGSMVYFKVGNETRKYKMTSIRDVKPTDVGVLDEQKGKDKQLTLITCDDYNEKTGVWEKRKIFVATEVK
molecule,measurement,setting,value
CC[C@H](C)[C@H](NC(=O)[C@H](CC(C)C)NC(=O)[C@@H](CCC(=O)O)NC(=O)[C@H](CC(=O)O)NC(=O)CNC(=O)[C@H](Cc1c[nH]cn1)NC(=O)CNC(=O)CN)C(=O)N[C@@H](CC1CCCCC1)C(=O)N[C@@H](CS)C(=O)O [Cu-GGHGDeLI(Cha)C—CO2^−] (H-GGHGD[dE]LI[Cha]C-OH),Kd,[1],0.5 µM
same,Ki,[1],~0.5 µM
same,KA,[1]; apparent binding affinity,~2e+06 M⁻¹
O=C([O-])CN(CC(=O)[O-])CC(=O)[O-].[Fe+3] [Fe-NTA],"klin for DNA linearization, without attached Rev (M-chelate)",[2],0.0008 ± 0.0002 min⁻¹
same,"knick for DNA nicking, without attached Rev (M-chelate)",[2],0.05 ± 0.01 min⁻¹
O=C(O)CN(CCN(CC(=O)O)CC(=O)O)CC(=O)O.[Ni] [Ni-EDTA],"klin for DNA linearization, without attached Rev (M-chelate)",[2],0.00019 ± 0.00002 min⁻¹
same,"knick for DNA nicking, without attached Rev (M-chelate)",[2],0.037 ± 0.002 min⁻¹
"Cu complex of ATCUN peptide GGHYrFK, C-terminal amidated; targets stem-loop IIb of HCV IRES RNA [Cu-GGHYrFK-amide]",Km,[3]; [11],0.85 µM
same,kcat,[3]; [11],0.00883 s⁻¹
same,Vmax,"[3]; cleavage of stem-loop IIb, 100 nM catalyst, 1 mM ascorbate, 1 mM H2O2",1.71 RFU/min
same,turnover number,[3]; stem-loop IIb RNA as substrate,32
same,CC50,[4],> 100 µM
same,Kd,[5]; change in tyrosine emission at 313 nm,0.044 ± 0.002 µM
same,KA,[5]; stem-loop IIb,2.27e+07 M⁻¹
same,IC50,[6],0.58 µM
"Cu complex of DOTA coupled to K-Rev, Ac-KTRQARRNRRRRWRERQR-NH2 [Cu-DOTA-Rev]",KA1,[7]; high-affinity RRE RNA site,25 10^8 M^−1
same,Kd,[7]; [12],0.0004 ± 0.0001 µM
same,KA2,[7]; low-affinity RRE RNA site,0.02 10^8 M^−1
same,Kd,[7]; [13],0.488 ± 0.009 µM
same,AP-RNA Modification Rate,[8],2.8 ± 0.1 nM/min
same,Fl-RNA Cleavage Rate,[9],0.8 ± 0.1 nM/min
same,"klin for DNA linearization, with attached Rev (M-chelate-REV)",[2],0.0025 ± 0.0008 min⁻¹
same,"knick for DNA nicking, with attached Rev (M-chelate-REV)",[2],0.043 ± 0.007 min⁻¹
"Cu complex of GGH-Rev, GGHTRQARRNRRRRWRERQR-NH2 [Cu-GGH-Rev]",KA1,[7]; high-affinity RRE RNA site,25 10^8 M^−1
same,Kd,[7]; [12],0.0046 ± 0.0005 µM
same,KA2,[7]; low-affinity RRE RNA site,0.028 10^8 M^−1
same,Kd,[7]; [13],0.363 ± 0.009 µM
same,AP-RNA Modification Rate,[8],0.4 ± 0.3 nM/min
same,Fl-RNA Cleavage Rate,[9],0.045 ± 0.005 nM/min
same,"klin for DNA linearization, with attached Rev (M-chelate-REV)",[2],0.0013 ± 0.0001 min⁻¹
same,"knick for DNA nicking, with attached Rev (M-chelate-REV)",[2],0.069 ± 0.006 min⁻¹
Cu-GGHAALEAKICHQIEYYFGDF,CC50,[4],41.1 µM
same,IC50,[6],3.46 µM
Cu-GGHGAALEAKICHQIEYYFGDF,CC50,[4],52 µM
same,IC50,[6],6.25 µM
Cu-GGHGKYKETDLLILFKDDYFAKKNEERK,CC50,[4],> 100 µM
same,IC50,[6],0.55 µM
Cu-GGHGKYKETDLLILFKDDYFAKKNEERKKDEL,CC50,[4],> 50 µM
same,IC50,[6],0.75 µM
Cu-GGHGLPET,IC50,[10],> 100 µM
same,activity for catalyst concentration of 1 μM,[10],0.027
Cu-GGHGLPETG,IC50,[10],> 100 µM
same,activity for catalyst concentration of 1 μM,[10],0.012
Cu-GGHGYrFK,CC50,[4],> 100 µM
same,IC50,[6],1.38 µM
Cu-GGHGYrFKGGGKDEL,CC50,[4],> 100 µM
same,IC50,[6],0.91 µM
Cu-GGHGYrFKGGGYGRKKRRQRRR,CC50,[4],96 µM
same,IC50,[6],0.95 µM
Cu-GGHKYKETDLLILFKDDYFAKKNEERKYGRKKRRQRRR,CC50,[4],> 50 µM
same,IC50,[6],0.83 µM
Cu-GGHLPETG,IC50,[10],> 100 µM
same,activity for catalyst concentration of 1 μM,[10],0.017
Cu-GGHYrFKGGGYGRKKRRQRRR,CC50,[4],84 µM
same,IC50,[6],1.85 µM
